Where “and” joins values, the source holds several entries; their conditions need not be identical. Equal values may be shown once.
System: LG0703-F948-PDC spheroids with HUVEC/MSC, viability
Test: Anticancer human tumor LG0703-F948-PDC patient-derived lung adenocarcinoma cell line growth inhibition [IpAb]
Details: for viability, T/C: stronger effect = lower value
Excerpt: Combinatorial screen of targeted agents with ipatasertib and abemaciclib in multi-cell type tumor spheroids
A high-throughput screen of multi-cell type tumor spheroids was designed to identify active combinations of targeted small molecules and ipatasertib or abemaciclib. Complex spheroids include a stromal component modeled by human endothelial cells (HUVEC) and fibroblasts modeled by human mesenchymal stem cells (MSCs). The concentration ranges selected for each drug and investigational agent were based upon clinically achievable concentrations if the clinical Cmax of the agent was known.
Compounds. The drugs and investigational agents: ipatasertib (NSC767898), abemaciclib(NSC768073), selumetinib (NSC741078), trametinib (758246), adavosertib (NSC754352), everolimus (NSC733504), sapanisertib (NSC764658), vemurafenib (NSC761431), venetoclax (NSC766270), copanlisib (NSC809693), apelisib (NSC765974), palbociblib (NSC758247), vemurafenib (NSC761431), dabrafenib (NSC764134), ravoxertinib (NSC781343), BMS-387032 (NSC767048), sotorasib (NSC818433), talazoparib (NSC767125) and afursertib (NSC778305), were obtained from the National Cancer Institute (NCI) Developmental Therapeutics Program Chemical Repository. The FDA-approved anticancer drug set is available from the NCI Developmental Therapeutics Program. […] The stock solutions were prepared in dimethyl sulfoxide (DMSO, Sigma-Aldrich, St. Louis, MO, cat. D2650) at 800-fold the tested concentration and stored at -70 degrees C prior to their use. All drugs and investigational agents were tested over a range starting from a high concentration at or near the clinical Cmax and decreasing in half-log increments. If the clinical Cmax for an agent had not been determined, the highest concentration tested was 10 microM.
NCI60 Cell Culture. NCI60 cell lines were obtained from the NCI Developmental Therapeutics Program Tumor Repository. For each lot of cells, the Repository performed Applied Biosystems AmpFLSTR Identifiler testing with PCR amplification to confirm consistency with the published Identifier STR profile for each cell line. Cells were kept in continuous culture for no more than 20 passages. The optimal seeding densities for each of the cell lines at each time point assessed were determined prior to performing the concentration response studies. Briefly, the NCI60 human tumor lines were grown as monolayers in RPMI 1640 medium supplemented with 10% FBS and 2 mmol/L L-glutamine.
An additional 9 lines were from the NCI60 cell line panel including MDA-MB-231 breast carcinoma, MDA-MB-468 breast carcinoma, MCF7 breast carcinoma, Hs578T breast carcinoma, MALME-3M melanoma, SK-MEL-2 melanoma, SK-OV-3 ovarian carcinoma, DU-145 prostate carcinoma, PC-3 prostate carcinoma, all cell lines along with major genetic alterations are listed on Table 2. Pooled donor human umbilical vein endothelial cells (HUVEC, Lonza, cat. CC-2519) and human mesenchymal stem cells (hMSC, Lonza, cat. PT-2501) were purchased from Lonza (Walkersville, MD).
PDMR cell lines were grown in complete medium (DC medium): Dulbecco's modified Eagle's medium (DMEM)/F12 supplemented with 5% fetal bovine serum (FBS), 2 mM L-glutamine, 100 U/mL penicillin and 100 µg/ml streptomycin, 0.4 µg/ml hydrocortisone, 10 ng/ml epidermal growth factor (EGF) recombinant human protein, 24 µg/mL adenine, and 0.1 mg/mL primocin. During culture from frozen stock vials, PDMR cells were cultured in the same medium containing 10 µM Y-27632 (see Table 3). The PDCs were cultured in complete DMEM/F12 media without 10 microM Y-27632 dihydrochloride for at least two passages prior to the screen. The pooled donor HUVEC and hMSC were cultured in endothelial cell growth medium 2 (PromoCell, Heidelberg, Germany, cat. C-22011) and mesenchymal stem cell growth medium 2 (PromoCell, cat. C-28009), respectively. For all experiments, HUVEC and hMSC were used at passages </=5.
[…]
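Note: spheroids exposed to compounds for seven days before readout.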
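Throughout, for viability, T/C: T/C percent relative to DMSO vehicle wells set as 100% viability.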

Row | Compound | viability, T/C (compound 0.0316 µM) | viability, T/C (compound 0.1 µM) | viability, T/C (compound 0.316 µM) | viability, T/C (compound 1 µM) | viability, T/C (compound 3.16 µM) | viability, T/C (compound 10 µM) | IC50 (curve of compound) | also measured
1 | C=CC(=O)N1CCN(c2nc(=O)n(-c3c(C)ccnc3C(C)C)c3nc(-c4c(O)cccc4F)c(F)cc23)C(C)C1 (centres undefined) | 110% and 106% | 108% and 103% | 119% | 113% and 129% | 108% and 119% | 65.2% and 83% | > 10000 nM | 
2 | C=CCn1c(=O)c2cnc(Nc3ccc(N4CCN(C)CC4)cc3)nc2n1-c1cccc(C(C)(C)O)n1 | 108% and 109% | 107% and 101% | 96.2% and 81.3% | 58% and 55.1% | 19.6% and 15.7% | 6.89% and 4.96% | 1280 nM and 1040 nM | 
3 | CC(=O)c1c(C)c2cnc(Nc3ccc(N4CCNCC4)cn3)nc2n(C2CCCC2)c1=O |  |  |  |  |  |  | > 300 nM | viability, T/C (compound 0.000949 µM): 115% and 112%; viability, T/C (compound 0.003 µM): 112% and 98.4%; viability, T/C (compound 0.00949 µM): 103% and 102%; viability, T/C (compound 0.03 µM): 101% and 87.4%; viability, T/C (compound 0.0949 µM): 103% and 73.3%; viability, T/C (compound 0.3 µM): 84% and 77.2%
4 | CC(C)(C)c1cnc(CSc2cnc(NC(=O)C3CCNCC3)s2)o1 |  |  |  |  |  |  | 108 nM and 76.9 nM | viability, T/C (compound 0.00949 µM): 105% and 90.3%; viability, T/C (compound 0.03 µM): 84% and 77.8%; viability, T/C (compound 0.0949 µM): 58.7% and 44.8%; viability, T/C (compound 0.3 µM): 0.71% and 0.81%; viability, T/C (compound 0.949 µM): 0.43% and 0.49%; viability, T/C (compound 3 µM): 0.25% and 0.28%
5 | CC(C)NCC(C(=O)N1CCN(c2ncnc3c2C(C)CC3O)CC1)c1ccc(Cl)cc1 (centres undefined) |  | 81% [middle of 13 runs] | 64.2% [middle of 13 runs] |  | 44.4% [middle of 13 runs] | 40.4% [middle of 13 runs] |  | 
6 | CC(C)n1nc(-c2ccc3oc(N)nc3c2)c2c(N)ncnc21 | 19.4% and 23.2% | 19.6% and 22.4% |  |  |  |  | 2.95 nM and 4.75 nM | viability, T/C (compound 0.000316 µM): 87.8% and 89.9%; viability, T/C (compound 0.001 µM): 66.2% and 83.2%; viability, T/C (compound 0.00316 µM): 52% and 57.7%; viability, T/C (compound 0.01 µM): 32.2% and 35.2%
7 | CC1(C)CCC(CN2CCN(c3ccc(C(=O)NS(=O)(=O)c4ccc(NCC5CCOCC5)c([N+](=O)[O-])c4)c(Oc4cnc5[nH]ccc5c4)c3)CC2)=C(c2ccc(Cl)cc2)C1 | 107% and 100% | 106% and 101% | 105% and 90.3% | 101% and 95.1% | 69.9% and 84.5% | 14.1% and 13.4% | 4740 nM and 5530 nM | 
8 | CCCS(=O)(=O)Nc1ccc(F)c(C(=O)c2c[nH]c3ncc(-c4ccc(Cl)cc4)cc23)c1F | 98.2% and 112% | 99.7% and 110% | 91.5% and 92.6% | 105% and 111% | 98.9% and 101% | 76.2% and 71.7% | > 10000 nM | 
9 | CCN1CCN(Cc2ccc(Nc3ncc(F)c(-c4cc(F)c5nc(C)n(C(C)C)c5c4)n3)nc2)CC1 | 97% [middle of 13 runs] | 91% [middle of 12 runs] | 83.5% [middle of 13 runs] |  |  |  |  | IC50 (compound alone, run of 06/01/2021): > 1000 nM
10 | COc1c(OCCCN2CCOCC2)ccc2c3n(c(=NC(=O)c4cnc(N)nc4)nc12)CCN3 | 56.1% and 63.4% | 20.8% and 24% | 6.09% and 7.35% | 3.7% and 4.95% |  |  | 35.6 nM and 46.5 nM | viability, T/C (compound 0.00316 µM): 96.2% and 95.4%; viability, T/C (compound 0.01 µM): 78.3% and 87.8%

— PubChem BioAssay AID2060330 (Molecular Pharmacology Branch, DTP, NCI, 2025)
